{
  "source": "patent US12697326B2",
  "about": "“Methods of treating hepatic encephalopathy” (SALIX PHARMACEUTICALS, INC., priority 2008, dated 2026)",
  "key": {"[1]": {"tested_on": "patients with HE", "conditions": "6-month study; rifaximin 1200 mg/day, neomycin 3 g/day; 14 days on, 14 days off per month; cited from earlier work"}, "[2]": {"tested_on": "patients with HE", "experiment": "Retrospective chart review of 145 patients with HE, lactulose then rifaximin", "type": "in vivo, human", "excerpt": "Total number of hospitalizations, duration of hospitalizations, HE endpoints, and cost of therapy were compared between the 2 treatment regimens."}, "[3]": {"tested_on": "liver transplant patients with HE", "experiment": "Chart review of 39 liver transplant patients with HE Conn scores of 2", "type": "in vivo, human", "conditions": "24 lactulose, 15 rifaximin"}},
  "data": [
    {"molecule": "neomycin", "values": [
      {"measurement": "efficacy in patients with HE, rifaximin versus neomycin", "setting": "[1]", "value": "comparable efficacy"}
    ]},
    {"molecule": "OC[C@H]1O[C@@H](O[C@@H]2[C@@H](CO)OC(O)(CO)[C@H]2O)[C@H](O)[C@@H](O)[C@H]1O", "note": "(mixture of isomers) [lactulose]", "values": [
      {"measurement": "patients with Conn scores of 3 or 4 at end of treatment period", "setting": "[2]", "value": 25, "unit": "%"},
      {"measurement": "hospitalizations reported for the group", "setting": "[3]", "value": "Nineteen"}
    ]}
  ]
}
